The values that follow are results of earlier work, collected in US5969096A (priority 1998, dated 1999).

The data set has as its target neuronal voltage-sensitive Ca2+ channels.

On to ω-conotoxin GVIA, for which the “affinity (Kd) for high-affinity targets” value was “sub-picomolar” and the “time for 50% of the peptide to dissociate” value is given as “more than 7 hours”.
